For one experiment, the target named is T1, KDR (Homo sapiens, UniProt P35968).
T1 construct: host or cells: HUVEC (human umbilical vein endothelial cells)
Put plainly: KDR autophosphorylation ELISA in HUVEC cells. Type of experiment: cell-based. The note with it: VEGF165-stimulated, phospho-KDR ELISA, 1 h compound incubation. How it is done:
Example C: KDR Autophosphorylation ELISA in HUVEC Cells
umbilical vein endothelial cells or HUVEC (Lonza #C2519A) were seeded at 2×10^4 cells/well onto 96-well plates (Corning #3904), in EGM-2 growth medium (Lonza #CC-3162) containing 1% Penicillin Streptomycin (Thermo Fisher #15140-122). HUVEC cells were incubated at 37° C., 5% CO2 for 24 h and then starved for 24 h in serum-free EBM-2 basal medium (Lonza #CC-3156) containing 1% Penicillin Streptomycin. Test compounds were serially diluted to produce an 8-point dose curve in fresh serum-free medium to a final concentration of 0.3% DMSO (vehicle) and added to the cells and incubated for 1 h. Cells were then stimulated with 100 ng/mL recombinant human VEGF165 (R&D Systems #293-VE-500) for 5 min, washed with cold PBS, and immediately lysed with 130 μL of cold IX lysis buffer [20 mM Tris, 137 mM sodium chloride, 2 mM EDTA, 10% glycerol, 1% NP-40 alternative, 1 mM activated sodium orthovanadate, 1 mM PefaBloc SC (Sigma-Aldrich #11429868001), protease/phosphatase inhibitor tablet (Thermo Fisher #A32959)]. Lysates were collected and 100 μL/well added into the human phospho-KDR DuoSet IC ELISA (R&D Systems #DYC 1766-2). Assay was performed according to manufacturer's instructions and sample phospho-KDR concentrations were extrapolated using human phospho-KDR control (R&D Systems #841421) as a standard. Positive control wells (100% activity) contained VEGF165-stimulated, DMSO-treated cell lysates. Negative control wells (0% activity) contained non-stimulated cell lysates. IC50 values were calculated by nonlinear regression analysis using a 4-parameter logistic curve fit in ActivityBase XE (IDBS).

In a further experiment the target is T2, AXL (Homo sapiens, UniProt P30530).
T2 construct: host or cells: A-172 glioblastoma cells
T2 sequence (P30530 26-894): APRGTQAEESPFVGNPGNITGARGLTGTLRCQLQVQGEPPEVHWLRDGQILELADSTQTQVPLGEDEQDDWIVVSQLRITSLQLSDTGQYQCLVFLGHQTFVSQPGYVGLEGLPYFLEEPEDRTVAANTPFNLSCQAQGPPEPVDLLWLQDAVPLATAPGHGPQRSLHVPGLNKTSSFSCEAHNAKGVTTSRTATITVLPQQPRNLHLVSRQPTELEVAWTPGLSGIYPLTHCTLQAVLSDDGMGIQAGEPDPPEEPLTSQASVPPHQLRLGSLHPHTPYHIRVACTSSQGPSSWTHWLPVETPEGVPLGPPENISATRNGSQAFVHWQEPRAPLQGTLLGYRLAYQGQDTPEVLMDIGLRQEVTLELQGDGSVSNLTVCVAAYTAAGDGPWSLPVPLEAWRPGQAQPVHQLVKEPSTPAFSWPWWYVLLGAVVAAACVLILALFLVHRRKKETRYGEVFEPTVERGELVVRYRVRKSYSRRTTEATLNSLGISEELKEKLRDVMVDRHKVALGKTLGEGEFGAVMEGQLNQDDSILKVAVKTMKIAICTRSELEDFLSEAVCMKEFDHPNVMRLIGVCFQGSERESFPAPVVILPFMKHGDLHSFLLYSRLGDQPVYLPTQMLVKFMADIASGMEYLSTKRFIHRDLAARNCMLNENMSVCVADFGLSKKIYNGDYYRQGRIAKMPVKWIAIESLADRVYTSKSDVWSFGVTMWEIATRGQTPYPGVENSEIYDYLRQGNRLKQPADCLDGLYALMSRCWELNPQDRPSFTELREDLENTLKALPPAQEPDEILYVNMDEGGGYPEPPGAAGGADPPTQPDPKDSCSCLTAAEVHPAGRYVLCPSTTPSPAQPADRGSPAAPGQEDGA
Put plainly: AXL autophosphorylation ELISA in A-172 cells. Type of experiment: cell-based. The note with it: A-172 glioblastoma cells, Gas6-stimulated, phospho-AXL ELISA, 1 h compound incubation. How it is done: Example A: AXL Autophosphorylation ELISA in A-172 Cells
A-172 glioblastoma cells (ATCC #CRL-1620) were seeded at 2.5×10^5 cells/well onto 24-well plates (Greiner #662165), in DMEM (Thermo Fisher #11995-040) containing 10% FBS (Thermo Fisher #26140-079), 1% MEM NEAA (Thermo Fisher #11140-050), 1% GlutaMax (Thermo Fisher #35050-061), and 1% Penicillin Streptomycin (Thermo Fisher #15140-122). A-172 cells were incubated at 37° C., 5% CO2 for 24 h and then starved for 24 h in serum-free medium. Test compounds were serially diluted to produce an 8-point dose curve in fresh serum-free medium to a final concentration of 0.3% DMSO (vehicle) and added to the cells and incubated for 1 h. Cells were then stimulated with 1 μg/mL recombinant human Gas6 (R&D Systems #885-GSB-500) for 15 min, washed with cold PBS, and immediately lysed with 150 μL of cold IX lysis buffer [20 mM Tris, 137 mM sodium chloride, 2 mM EDTA, 10% glycerol, 1% NP-40 alternative, 1 mM activated sodium orthovanadate, 1 mM PefaBloc SC (Sigma-Aldrich #11429868001), protease/phosphatase inhibitor tablet (Thermo Fisher #A32959)]. Lysates were collected and 100 μL/well added into the human phospho-AXL DuoSet IC ELISA (R&D Systems #DYC2228-2). Assay was performed according to manufacturer's instructions and sample phospho-AXL concentrations were extrapolated using human phospho-AXL control (R&D Systems #841645) as a standard. Positive control wells (100% activity) contained Gas6-stimulated, DMSO-treated cell lysates. Negative control wells (0% activity) contained Gas6-stimulated, reference inhibitor-treated cell lysates. IC50 values were calculated by nonlinear regression analysis using a 4-parameter logistic curve fit in ActivityBase XE (IDBS).

SMILES strings stand for the structures.

The record followed here is patent publication US20220089541A1, “Compounds for the Treatment of Kinase-Dependent Disorders” (Exelixis, Inc., priority 2019, published 2022).

T1 sequence (P35968 20-1356): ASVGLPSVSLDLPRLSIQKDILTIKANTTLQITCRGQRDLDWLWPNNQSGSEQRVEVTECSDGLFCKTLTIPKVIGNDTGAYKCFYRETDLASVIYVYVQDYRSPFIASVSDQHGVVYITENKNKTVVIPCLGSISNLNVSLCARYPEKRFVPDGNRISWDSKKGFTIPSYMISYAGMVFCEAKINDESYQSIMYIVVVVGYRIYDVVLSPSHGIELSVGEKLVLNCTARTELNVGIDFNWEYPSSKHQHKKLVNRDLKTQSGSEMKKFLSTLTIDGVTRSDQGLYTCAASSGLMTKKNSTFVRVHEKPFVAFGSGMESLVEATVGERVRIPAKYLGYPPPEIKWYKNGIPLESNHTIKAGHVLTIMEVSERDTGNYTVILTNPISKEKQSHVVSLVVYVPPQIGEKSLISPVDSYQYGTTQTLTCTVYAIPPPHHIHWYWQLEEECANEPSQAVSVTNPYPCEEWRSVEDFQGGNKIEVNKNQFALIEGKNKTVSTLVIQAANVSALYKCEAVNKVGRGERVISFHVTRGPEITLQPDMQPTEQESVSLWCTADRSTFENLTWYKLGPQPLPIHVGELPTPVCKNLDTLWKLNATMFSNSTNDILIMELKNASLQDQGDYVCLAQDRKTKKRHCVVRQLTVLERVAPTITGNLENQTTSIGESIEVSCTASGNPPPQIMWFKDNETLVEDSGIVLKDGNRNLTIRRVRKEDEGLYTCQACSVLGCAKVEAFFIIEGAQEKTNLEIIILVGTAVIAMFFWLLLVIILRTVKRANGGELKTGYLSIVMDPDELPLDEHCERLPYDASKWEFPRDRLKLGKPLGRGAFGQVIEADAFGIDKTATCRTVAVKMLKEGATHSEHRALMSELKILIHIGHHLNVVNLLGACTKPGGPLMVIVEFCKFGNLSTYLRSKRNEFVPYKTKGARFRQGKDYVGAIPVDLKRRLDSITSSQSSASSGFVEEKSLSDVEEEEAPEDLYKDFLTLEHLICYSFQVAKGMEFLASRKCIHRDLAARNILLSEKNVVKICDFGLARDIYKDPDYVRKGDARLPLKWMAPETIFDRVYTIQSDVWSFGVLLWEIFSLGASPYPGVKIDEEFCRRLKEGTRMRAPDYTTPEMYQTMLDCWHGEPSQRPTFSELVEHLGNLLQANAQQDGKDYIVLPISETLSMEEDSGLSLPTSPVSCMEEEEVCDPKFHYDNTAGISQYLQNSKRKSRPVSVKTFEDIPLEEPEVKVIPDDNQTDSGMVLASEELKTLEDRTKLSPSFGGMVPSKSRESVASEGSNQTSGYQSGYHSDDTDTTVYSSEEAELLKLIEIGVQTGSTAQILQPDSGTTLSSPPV

With `COc1cc2nccc(Oc3ccc(NC(=O)C4(C(=O)N(C)c5ccc(F)cc5)CC4)cc3)c2cc1OC` [Compound 9, 1-N-[4-(6,7-Dimethoxyquinolin-4-yl)oxyphenyl]-1-N′-(4-fluorophenyl)-1-N′-methylcyclopropane-1,1-dicarboxamide], the IC50 against KDR and on AXL was greater than 300 nM throughout.

With `COc1cc2nccc(Oc3ccc(NC(=O)C4(C(=O)N(C)c5ccc(F)cc5)CC4)cc3F)c2cc1OC` [Compound 10, N-(4-((6,7-Dimethoxyquinolin-4-yl)oxy)-3-fluorophenyl)-N-(4-fluorophenyl)-N-methylcyclopropane-1,1-dicarboxamide], the IC50 on KDR and at AXL was greater than 300 nM in each case.

For `CNC(=O)c1cc2c(Oc3ncc(NC(=O)C4(C(=O)N(C)c5ccc(F)cc5)CC4)cc3F)ccnc2cc1OC` [Compound 34, 1-N-[5-Fluoro-6-[7-methoxy-6-(methylcarbamoyl)quinolin-4-yl]oxypyridin-3-yl]-1-N′-(4-fluorophenyl)-1-N′-methylcyclopropane-1,1-dicarboxamide], the IC50 at KDR and against AXL was greater than 300 nM in each case.

For the compound `COc1cc2nccc(Oc3ncc(NC(=O)C4(C(=O)N(C)c5ccc(F)cc5)CC4)cc3F)c2cc1C(N)=O` [Compound 35, 1-N-[6-(6-Carbamoyl-7-methoxyquinolin-4-yl)oxy-5-fluoropyridin-3-yl]-1-N′-(4-fluorophenyl)-1-N′-methylcyclopropane-1,1-dicarboxamide], the IC50 against KDR and at AXL was greater than 300 nM throughout.

Compound `COc1cc2nccc(Oc3ccc(N(C)C(=O)C4(C(=O)Nc5ccc(F)cc5)CC4)cc3F)c2cc1OC` [Compound 51, 1-N′-[4-(6,7-Dimethoxyquinolin-4-yl)oxy-3-fluorophenyl]-1-N-(4-fluorophenyl)-1-N′-methylcyclopropane-1,1-dicarboxamide] returned an IC50 at AXL greater than 300 nM.
